In PMC4838876, “Multivalent display of minimal Clostridium difficile glycan epitopes mimics antigenic properties of larger glycans” (Nature Communications, 2016):

Test system: mAbs 2C5, 10A1 and 10D6
Experiment: Glycan microarray binding of purified mAbs
Parameters: species or system mouse
Conditions: purified mAbs on microarray, 10 μg ml^−1
Description: Three hybridoma clones termed 2C5, 10A1 and 10D6 produced IgG exclusively binding to 1. […] The three mAbs were of the IgG1 subtype (Fig. 4b). Microarrays with PS-I oligosaccharide substructures were used to determine their binding specificities (Fig. 4c). […] No binding to oligoglucoses 5 and 6, or unrelated glycans 7 or 8 was seen (Fig. 4c,d). Based on these findings, we concluded that the requirements for anti-PS-I antibody binding were a terminal rhamnose that is 1→3 linked to a glucose, as present in glycans 1–3.
Figure 4 Characterization and epitope recognition patterns of anti-PS-I mAbs. (a) SDS–PAGE analysis of the purified mAbs showing bands corresponding to heavy and light IgG chains. (b) Isotyping analysis of the three mAbs. […] (d) Glycan microarray-inferred binding signals to selected PS-I antigens (1–4) expressed as background-subtracted mean fluorescence intensities (MFIs) are shown. […]
Microarray slides were blocked with 1% BSA in PBS (w/v) for 1 h at RT, washed three times with PBS and dried by centrifugation (300 g, 5 min). […] Slides were incubated with fluorescence-labelled secondary antibodies diluted 1:400 in 1% BSA in PBS (w/v) in a humid chamber for 1 h at RT, washed three times with 0.1% Tween-20 in PBS (v/v), rinsed once with deionized water and dried by centrifugation (300 g, 5 min) before scanning with a GenePix 4300A microarray scanner (Molecular Devices). […]

SMILES | Glycan microarray binding signal (in words)
C[C@@H]1O[C@@H](O[C@@H]2[C@@H](O)[C@H](OCCCCCN)O[C@H](CO)[C@H]2O)[C@H](O)[C@H](O)[C@H]1O [Compound 3, Rha-(1→3)-Glc] | weaker signals
C[C@@H]1O[C@@H](O[C@@H]2[C@@H](O)[C@H](O[C@H]3[C@H](O[C@@H]4O[C@@H](C)[C@H](O)[C@@H](O)[C@H]4O)[C@@H](O)[C@@H](O[C@H]4[C@@H](OCCCCCN)O[C@H](CO)[C@@H](O)[C@@H]4O)O[C@@H]3CO)O[C@H](CO)[C@H]2O)[C@H](O)[C@H](O)[C@H]1O [Compound 1] | Highest binding signals
